Results reported in patent US20260108546A1 (ELI LILLY AND COMPANY, priority 2024, published 2026).

Target: T1, hGIP-R (Homo sapiens, UniProt P48546)
T1 construct: expressed in transfected cells; host or cells: HEK-293 clonal cell lines
T1 sequence (P48546 22-466): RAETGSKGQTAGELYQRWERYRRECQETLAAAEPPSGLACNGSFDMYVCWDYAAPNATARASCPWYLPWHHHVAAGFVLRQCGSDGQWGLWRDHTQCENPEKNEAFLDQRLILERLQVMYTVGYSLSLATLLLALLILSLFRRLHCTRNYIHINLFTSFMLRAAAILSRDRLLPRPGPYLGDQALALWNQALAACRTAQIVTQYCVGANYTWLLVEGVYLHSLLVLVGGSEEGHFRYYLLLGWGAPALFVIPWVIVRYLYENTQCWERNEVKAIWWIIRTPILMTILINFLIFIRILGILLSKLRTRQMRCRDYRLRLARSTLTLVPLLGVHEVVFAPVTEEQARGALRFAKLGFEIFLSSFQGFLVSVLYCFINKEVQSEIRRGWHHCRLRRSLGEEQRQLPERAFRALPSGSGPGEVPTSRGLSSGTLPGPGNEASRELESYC
Assay: Functional hGIP-R Assay (cAMP formation, HTRF)
Type: cell-based
Conditions: for Emax: cAMP efficacy, percent of maximal response to GIP(1-42)OH, 37° C., 0.1% bovine casein, arithmetic mean ± SEM; for EC50: cAMP potency, HEK-293 cells expressing hGIP-R, incubated at 37° C. in the presence of 0.1% bovine casein, geometric mean, read-out: Human GIP-R EC50, nM (SEM, n)
Procedure, shortened: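 Relative EC50 and Emax came from four-parameter logistic fits of cAMP as a percent of the human GIP (1-42) OH maximal response. The cAMP was measured by competitive HTRF after 30 min, 37 °C compound exposure of hGIP-R HEK-293 clones in IBMX (250 μM)-containing medium.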

Row | SMILES | Emax | EC50
1 | CN(C(=O)[C@H]1C[C@@H]1c1ccc(-c2cnc3nccn3c2)cc1)[C@H](Cc1cnn(C)c1)C(=O)NC(C)(C)Cn1nc(C(F)(F)F)cc1-c1ccc(=O)n(C)c1 [Example 34, (1S,2S)-2-(4-(imidazo[1,2-a]pyrimidin-6-yl)phenyl)-N-methyl-N-((R)-1-((2-methyl-1-(5-(1-methyl-6-oxo-1,6-dihydropyridin-3-yl)-3-(trifluoromethyl)-1H-pyrazol-1-yl)propan-2-yl)amino)-3-(1-methyl-1H-pyrazol-4-yl)-1-oxopropan-2-yl)cyclopropane-1-carboxamide] | 113 ± 12.3% | 183 nM
2 | CN(C(=O)[C@H]1C[C@@H]1c1ccc(NC(=O)C2CCC(F)(F)CC2)cc1)[C@H](Cc1cnn(C)c1)C(=O)NC(C)(C)Cn1nc(C(F)(F)F)cc1-c1ccc(=O)n(C)c1 [Example 35, 4,4-Difluoro-N-(4-((1S,2S)-2-(methyl((R)-1-((2-methyl-1-(5-(1-methyl-6-oxo-1,6-dihydropyridin-3-yl)-3-(trifluoromethyl)-1H-pyrazol-1-yl)propan-2-yl)amino)-3-(1-methyl-1H-pyrazol-4-yl)-1-oxopropan-2-yl)carbamoyl)cyclopropyl)phenyl)cyclohexane-1-carboxamide] | 75 ± 4.1% | 135 nM
3 | CN(C(=O)[C@H]1C[C@@H]1c1ccc(NC(=O)Nc2ccc(F)cc2)cc1)[C@H](Cc1cnn(C)c1)C(=O)NC(C)(C)Cc1ccc(F)cc1 [Example 36, (1S,2S)-N-((R)-1-((1-(4-Fluorophenyl)-2-methylpropan-2-yl)amino)-3-(1-methyl-1H-pyrazol-4-yl)-1-oxopropan-2-yl)-2-(4-(3-(4-fluorophenyl)ureido)phenyl)-N-methylcyclopropane-1-carboxamide] | 94 ± 11.1% | 104 nM
4 | Cn1cc2cc(-c3ccc([C@H]4C[C@@H]4C(=O)N[C@H](Cc4cnc5ncccn45)C(=O)NC(C)(C)Cn4nc(C(F)(F)F)cc4C4CC4)cc3)cnc2n1 [Example 37, (1S,2S)-N-((R)-1-((1-(5-Cyclopropyl-3-(trifluoromethyl)-1H-pyrazol-1-yl)-2-methylpropan-2-yl)amino)-3-(imidazo[1,2-a]pyrimidin-3-yl)-1-oxopropan-2-yl)-2-(4-(2-methyl-2H-pyrazolo[3,4-b]pyridin-5-yl)phenyl) cyclopropane-1-carboxamide] | 77.4 ± 5.92% | 10.8 nM
5 | Cn1cc(-c2cc(C(F)(F)F)nn2CC(C)(C)NC(=O)[C@@H](Cc2cnc3ncccn23)NC(=O)[C@H]2C[C@@H]2c2ccc(-c3cnc4nccn4c3)cc2)cn1 [Example 38] | 92.1% | 7.93 nM
6 | CC(C)(Cn1ccc(C(F)(F)F)n1)NC(=O)[C@@H](Cc1cnc2ncccn12)NC(=O)[C@H]1C[C@@H]1c1ccc(-c2cnc3nccn3c2)cc1 [Example 39, (1S,2S)-N-((R)-3-(Imidazo[1,2-a]pyrimidin-3-yl)-1-((2-methyl-1-(3-(trifluoromethyl)-1H-pyrazol-1-yl)propan-2-yl)amino)-1-oxopropan-2-yl)-2-(4-(imidazo[1,2-a]pyrimidin-6-yl)phenyl) cyclopropane-1-carboxamide] | 77.8 ± 2.57% | 63.1 nM
7 | CC(C)(Cn1nc(C(F)(F)F)cc1C1CC1)NC(=O)[C@@H](Cc1cnc2ncccn12)NC(=O)[C@H]1C[C@@H]1c1ccc(NC(=O)C2CC(F)(F)C2)cc1 [Example 40, N-(4-((1S,2S)-2-(((R)-1-((1-(5-cyclopropyl-3-(trifluoromethyl)-1H-pyrazol-1-yl)-2-methylpropan-2-yl)amino)-3-(imidazo[1,2-a]pyrimidin-3-yl)-1-oxopropan-2-yl)carbamoyl)cyclopropyl)phenyl)-3,3-difluorocyclobutane-1-carboxamide] | 60.7 ± 0.306% | 3.55 nM
8 | Cn1cc(C[C@@H](NC(=O)[C@H]2C[C@@H]2c2ccc(-c3cnc4nn(C)cc4c3)cc2)C(=O)NC(C)(C)Cn2nc(C(F)(F)F)cc2-c2cn[nH]c2)cn1 [Example 41, (1S,2S)-N—((R)-1-((2-Methyl-1-(5-(trifluoromethyl)-1′H,2H-[3,4′-bipyrazol]-2-yl)propan-2-yl)amino)-3-(1-methyl-1H-pyrazol-4-yl)-1-oxopropan-2-yl)-2-(4-(2-methyl-2H-pyrazolo[3,4-b]pyridin-5-yl)phenyl)cyclopropane-1-carboxamide] | 111 ± 4.76% | 20.2 nM

The remaining lines, values ahead:

Row | Emax | EC50 | SMILES
9 | 114 ± 10.2% | 52.7 nM | Cn1cc(C[C@@H](NC(=O)[C@H]2C[C@@H]2c2ccc(-c3cnc4nn(C)cc4c3)cc2)C(=O)NC(C)(C)Cn2nc(C(F)(F)F)cc2-c2cc[nH]n2)cn1 [Example 42]
10 | 116 ± 4.26% | 61.1 nM | Cn1cc2cc(-c3ccc([C@H]4C[C@@H]4C(=O)N[C@H](Cc4cnn(C(F)F)c4)C(=O)NC(C)(C)Cn4nc(C(F)(F)F)cc4-c4cn[nH]n4)cc3)cnc2n1 [Example 43, (1S,2S)-N-((R)-1-((1-(5-(2H-1,2,3-Triazol-4-yl)-3-(trifluoromethyl)-1H-pyrazol-1-yl)-2-methylpropan-2-yl)amino)-3-(1-(difluoromethyl)-1H-pyrazol-4-yl)-1-oxopropan-2-yl)-2-(4-(2-methyl-2H-pyrazolo[3,4-b]pyridin-5-yl)phenyl)cyclopropane-1-carboxamide]
11 | 111 ± 17.5% | 122 nM | Cn1cc(C[C@@H](NC(=O)[C@H]2C[C@@H]2c2ccc(-c3cnc4nn(C)cc4c3)cc2)C(=O)NC(C)(C)Cn2nc(C(F)F)cc2-c2cn[nH]n2)cn1 [Example 44, (1S,2S)-N-((R)-1-((1-(3-(Difluoromethyl)-5-(2H-1,2,3-triazol-4-yl)-1H-pyrazol-1-yl)-2-methylpropan-2-yl)amino)-3-(1-methyl-1H-pyrazol-4-yl)-1-oxopropan-2-yl)-2-(4-(2-methyl-2H-pyrazolo[3,4-b]pyridin-5-yl)phenyl)cyclopropane-1-carboxamide]
12 | 79.8 ± 9.84% | 10.7 nM | CC(C)(Cn1cc(C(F)(F)F)cn1)NC(=O)[C@@H](Cc1cnc2ncccn12)NC(=O)[C@H]1C[C@@H]1c1ccc(NC(=O)C2CCC(F)(F)CC2)cc1 [Example 45, 4,4-Difluoro-N-(4-((1S,2S)-2-(((R)-3-(imidazo[1,2-a]pyrimidin-3-yl)-1-((2-methyl-1-(4-(trifluoromethyl)-1H-pyrazol-1-yl)propan-2-yl)amino)-1-oxopropan-2-yl)carbamoyl)cyclopropyl)phenyl)cyclohexane-1-carboxamide]
13 | 66.4 ± 2.06% | 77.9 nM | CC(C)(Cn1cc(C(F)(F)F)cn1)NC(=O)[C@@H](Cc1cnc2ncccn12)NC(=O)[C@H]1C[C@@H]1c1ccc(NC(=O)C2CC(F)(F)C2)cc1 [Example 46, 3,3-Difluoro-N-(4-((1S,2S)-2-(((R)-3-(imidazo[1,2-a]pyrimidin-3-yl)-1-((2-methyl-1-(4-(trifluoromethyl)-1H-pyrazol-1-yl)propan-2-yl)amino)-1-oxopropan-2-yl)carbamoyl)cyclopropyl)phenyl) cyclobutane-1-carboxamide]
14 | 84.6 ± 1.49% | 41.5 nM | CC(C)(Cn1cc(C(F)(F)F)cn1)NC(=O)[C@@H](Cc1cnc2ncccn12)NC(=O)[C@H]1C[C@@H]1c1ccc(-c2cnc3nccn3c2)cc1 [Example 47, (1S,2S)-N-((R)-3-(Imidazo[1,2-a]pyrimidin-3-yl)-1-((2-methyl-1-(4-(trifluoromethyl)-1H-pyrazol-1-yl)propan-2-yl)amino)-1-oxopropan-2-yl)-2-(4-(imidazo[1,2-a]pyrimidin-6-yl)phenyl) cyclopropane-1-carboxamide]
15 | 56.5 ± 4.38% | 76.9 nM | CC(C)(Cc1ccc(F)cc1)NC(=O)[C@@H](Cc1cnc2ncccn12)NC(=O)[C@H]1C[C@@H]1c1ccc(NC(=O)C2CC(F)(F)C2)cc1 [Example 48, 3,3-Difluoro-N-(4-((1S,2S)-2-(((R)-1-((1-(4-fluorophenyl)-2-methylpropan-2-yl)amino)-3-(imidazo[1,2-a]pyrimidin-3-yl)-1-oxopropan-2-yl)carbamoyl)cyclopropyl)phenyl)cyclobutane-1-carboxamide]
16 | 72.6 ± 3.47% | 12.6 nM | CC(C)(Cc1ccc(F)cc1)NC(=O)[C@@H](Cc1cnc2ncccn12)NC(=O)[C@H]1C[C@@H]1c1ccc(NC(=O)C2CCC(F)(F)CC2)cc1 [Example 49, 4,4-Difluoro-N-(4-((1S,2S)-2-(((R)-1-((1-(4-fluorophenyl)-2-methylpropan-2-yl)amino)-3-(imidazo[1,2-a]pyrimidin-3-yl)-1-oxopropan-2-yl)carbamoyl)cyclopropyl)phenyl)cyclohexane-1-carboxamide]
17 | 120 ± 6.49% | 62.7 nM | Cn1cc(C[C@@H](NC(=O)[C@H]2C[C@@H]2c2ccc(-c3cnc4nn(C)cc4c3)cc2)C(=O)NC(C)(C)Cn2nc(C(F)(F)F)cc2C2CCC2)cn1 [Example 51, (1S,2S)-N—((R)-1-((1-(5-Cyclobutyl-3-(trifluoromethyl)-1H-pyrazol-1-yl)-2-methylpropan-2-yl)amino)-3-(1-methyl-1H-pyrazol-4-yl)-1-oxopropan-2-yl)-2-(4-(2-methyl-2H-pyrazolo[3,4-b]pyridin-5-yl)phenyl)cyclopropane-1-carboxamide]
